Assay results as given in publication PMC12362618, “Development of the First Small-Molecule Inhibitor Targeting Oncostatin M for Treatment of Breast Cancer” (Journal of Medicinal Chemistry, 2025).

Tested on: OSM-induced pSTAT3 in MDA-MB-231 human breast cancer cells
Assay: pSTAT3 ELISA in MDA-MB-231 cells treated with OSM ± SMI
Format: cell-based
Conditions: SMI 10 μM, OSM 10 ng/mL, 30 min
Method: 2 High-throughput virtual screening identifies three novel compounds capable of interacting with site III of OSM. […] (F) Structure of parent SMI-10. Data are presented as mean ± SD relative to + OSM treatment, analyzed by one-way ANOVA with Tukey’s posttest *p < 0.05, **p < 0.01. To test the effect of SMIs in vitro, each SMI was incubated with OSM for a period of 1 h at 37 °C, and T47D and MDA-MB-231 human breast cancer cell lines were subsequently treated with OSM (10 ng/mL) and/or SMI-10 (10 μM) analogs for 30 min and measured for pSTAT3 levels via ELISA. The results of these assays are presented graphically in Figure and, for T47D cells, in Table as a percentage of reduction from +OSM alone. For phospho-STAT3 (pSTAT3) ELISAs, T47D MDA-MB-231, and MCF-7 cells were seeded in 12- or 24-well plates at 70–75% confluency and allowed to adhere overnight, after which cells were serum-starved with serum-free RPMI-1640 for 4 h. SMIs (10 μM in DMSO or serially diluted to specified concentrations from a 100 mM stock in DMSO) and human recombinant OSM (10 ng/mL; PeproTech; #300–10T-10UG) were incubated in serum-free RPMI-1640 medium for 1 h. After incubation, the SMI-10 analogs or SMI-10B13 and OSM were added to the serum-starved cells for 30 min. Immediately afterward, the cells were lysed using 1x PathScan Sandwich ELISA Lysis Buffer (Cell Signaling Technology; #7018S), collected, and stored at −20 °C. Lysates were analyzed for pSTAT3 levels using either the PathScan Phospho-STAT3 (Tyr705) Sandwich ELISA Antibody Pair kit (Cell Signaling Technology; #7146) or Human/Mouse Phospho-STAT3 (Y705) DuoSet IC ELISA (R&D Systems; DYC4607B), according to manufacture’s protocol. pSTAT3 expression was measured with absorbance at 450 nm and quantified by comparison relative to OSM-induced pSTAT3 levels. To calculate an IC50 for SMI-10B13, a standard curve was generated as described in the DuoSet IC ELISA datasheet to determine the concentration of pSTAT3.

## O=[N+]([O-])c1c(/C=N/Nc2ccccc2)oc(-c2ccc3c(c2)OCO3)c1-c1ccc2c(c1)OCO2 [SMI-10]
  Inhibition of OSM-induced pSTAT3 via ELISA: effective inhibitors of OSM
